In this experiment the target is human Cav2.2 (Homo sapiens, UniProt Q00975). The experiment can be described thus: Assessment of calcium channel activity using FLIPR (Ca2+ influx in IMR32 cells). Type of experiment: cell-based. The following applies: 60 minute pre-incubation with compound, 2 μM nifedipine, depolarized with 80 mM KCl. The procedure, abridged:
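IMR32 neuroblastoma cells seeded at 1-1.2×10^5 cells/well and grown 48 h at 37 °C before FLIPR Ca2+ influx read. Percent inhibition at each concentration vs no-inhibitor activity; IC50 by non-linear sigmoidal dose-response fit.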
Chain of human Cav2.2 (Q00975 whole entry): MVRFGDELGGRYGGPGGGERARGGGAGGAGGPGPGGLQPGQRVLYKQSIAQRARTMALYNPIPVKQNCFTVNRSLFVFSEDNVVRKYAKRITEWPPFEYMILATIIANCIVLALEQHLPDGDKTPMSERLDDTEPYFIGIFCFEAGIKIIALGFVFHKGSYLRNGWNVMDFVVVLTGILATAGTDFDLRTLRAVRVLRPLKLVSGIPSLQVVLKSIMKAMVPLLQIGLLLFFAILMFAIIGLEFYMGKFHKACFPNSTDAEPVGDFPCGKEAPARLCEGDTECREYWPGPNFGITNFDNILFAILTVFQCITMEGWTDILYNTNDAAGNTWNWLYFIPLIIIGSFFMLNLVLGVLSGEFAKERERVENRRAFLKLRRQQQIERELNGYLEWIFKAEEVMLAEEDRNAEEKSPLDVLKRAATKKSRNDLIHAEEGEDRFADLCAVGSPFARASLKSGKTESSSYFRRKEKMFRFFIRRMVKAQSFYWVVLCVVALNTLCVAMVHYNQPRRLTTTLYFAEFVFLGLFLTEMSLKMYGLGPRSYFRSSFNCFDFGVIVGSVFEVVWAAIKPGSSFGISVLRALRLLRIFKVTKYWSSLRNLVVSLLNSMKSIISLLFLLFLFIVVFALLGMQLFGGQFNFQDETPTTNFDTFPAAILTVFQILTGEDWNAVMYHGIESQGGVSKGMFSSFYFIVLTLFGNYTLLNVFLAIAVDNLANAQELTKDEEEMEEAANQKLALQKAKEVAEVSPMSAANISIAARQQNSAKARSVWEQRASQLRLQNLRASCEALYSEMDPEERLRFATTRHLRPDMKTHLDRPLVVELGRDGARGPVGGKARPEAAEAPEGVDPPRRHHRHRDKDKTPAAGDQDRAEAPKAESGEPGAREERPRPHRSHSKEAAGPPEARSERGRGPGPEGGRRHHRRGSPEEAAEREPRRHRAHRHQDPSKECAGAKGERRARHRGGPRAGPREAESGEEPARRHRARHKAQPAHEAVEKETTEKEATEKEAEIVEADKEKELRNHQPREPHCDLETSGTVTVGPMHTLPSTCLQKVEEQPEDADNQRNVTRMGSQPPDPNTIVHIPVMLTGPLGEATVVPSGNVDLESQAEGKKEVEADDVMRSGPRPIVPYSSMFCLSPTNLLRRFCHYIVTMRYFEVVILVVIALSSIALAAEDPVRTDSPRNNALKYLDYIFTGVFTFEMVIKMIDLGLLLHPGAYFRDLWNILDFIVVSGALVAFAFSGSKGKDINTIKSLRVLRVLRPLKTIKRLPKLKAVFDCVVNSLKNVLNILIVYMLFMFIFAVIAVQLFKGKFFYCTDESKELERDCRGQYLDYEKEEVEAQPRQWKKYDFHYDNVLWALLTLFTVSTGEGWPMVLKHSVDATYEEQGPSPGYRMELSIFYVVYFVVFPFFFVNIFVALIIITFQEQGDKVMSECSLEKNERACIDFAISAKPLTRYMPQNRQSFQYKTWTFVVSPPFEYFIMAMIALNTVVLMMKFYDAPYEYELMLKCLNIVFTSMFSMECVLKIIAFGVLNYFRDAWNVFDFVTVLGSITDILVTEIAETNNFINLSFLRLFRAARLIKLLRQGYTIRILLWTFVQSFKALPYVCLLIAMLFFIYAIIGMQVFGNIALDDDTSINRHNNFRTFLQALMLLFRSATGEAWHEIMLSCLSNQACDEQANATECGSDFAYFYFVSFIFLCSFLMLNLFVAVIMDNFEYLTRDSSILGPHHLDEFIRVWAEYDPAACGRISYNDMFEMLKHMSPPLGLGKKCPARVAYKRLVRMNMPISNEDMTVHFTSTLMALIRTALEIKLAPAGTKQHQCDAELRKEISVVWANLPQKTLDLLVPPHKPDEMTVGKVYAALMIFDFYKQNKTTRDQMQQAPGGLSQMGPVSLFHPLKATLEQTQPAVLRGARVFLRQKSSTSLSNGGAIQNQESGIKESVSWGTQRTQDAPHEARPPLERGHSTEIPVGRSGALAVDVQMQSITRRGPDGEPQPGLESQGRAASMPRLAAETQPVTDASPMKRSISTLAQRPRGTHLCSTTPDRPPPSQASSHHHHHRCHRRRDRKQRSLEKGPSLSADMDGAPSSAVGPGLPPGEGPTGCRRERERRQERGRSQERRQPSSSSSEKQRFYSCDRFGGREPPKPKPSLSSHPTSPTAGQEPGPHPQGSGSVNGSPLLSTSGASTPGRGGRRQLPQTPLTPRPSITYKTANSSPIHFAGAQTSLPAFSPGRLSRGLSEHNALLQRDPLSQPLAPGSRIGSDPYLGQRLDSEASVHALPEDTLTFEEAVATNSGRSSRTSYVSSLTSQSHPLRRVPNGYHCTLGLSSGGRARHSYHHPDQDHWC
Chain of human Cav2.2 (P54289 25-946 partner limits assumed): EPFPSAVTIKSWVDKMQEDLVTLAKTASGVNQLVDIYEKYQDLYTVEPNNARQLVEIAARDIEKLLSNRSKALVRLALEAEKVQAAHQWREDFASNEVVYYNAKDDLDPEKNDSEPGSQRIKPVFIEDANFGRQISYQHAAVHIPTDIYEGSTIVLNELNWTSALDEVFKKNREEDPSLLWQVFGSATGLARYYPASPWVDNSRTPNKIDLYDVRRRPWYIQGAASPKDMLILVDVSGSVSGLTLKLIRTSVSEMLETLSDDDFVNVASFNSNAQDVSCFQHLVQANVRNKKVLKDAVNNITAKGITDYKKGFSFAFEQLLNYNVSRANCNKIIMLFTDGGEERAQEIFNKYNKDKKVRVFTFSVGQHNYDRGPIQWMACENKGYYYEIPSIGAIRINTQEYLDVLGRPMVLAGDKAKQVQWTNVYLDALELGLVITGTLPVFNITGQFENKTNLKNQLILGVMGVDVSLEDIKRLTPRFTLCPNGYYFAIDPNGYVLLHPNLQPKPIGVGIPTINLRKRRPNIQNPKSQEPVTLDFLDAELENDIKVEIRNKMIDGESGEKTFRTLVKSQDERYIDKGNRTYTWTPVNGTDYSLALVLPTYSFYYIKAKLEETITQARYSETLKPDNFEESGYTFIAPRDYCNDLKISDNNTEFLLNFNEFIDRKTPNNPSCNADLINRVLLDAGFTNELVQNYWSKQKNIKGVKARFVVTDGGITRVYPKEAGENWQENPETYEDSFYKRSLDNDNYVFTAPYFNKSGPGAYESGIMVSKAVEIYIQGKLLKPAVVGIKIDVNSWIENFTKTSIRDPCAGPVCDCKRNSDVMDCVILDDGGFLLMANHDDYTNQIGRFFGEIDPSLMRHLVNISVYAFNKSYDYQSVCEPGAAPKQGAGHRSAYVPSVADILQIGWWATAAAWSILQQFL
Chain of human Cav2.2 (P54289 947-1103 partner limits assumed): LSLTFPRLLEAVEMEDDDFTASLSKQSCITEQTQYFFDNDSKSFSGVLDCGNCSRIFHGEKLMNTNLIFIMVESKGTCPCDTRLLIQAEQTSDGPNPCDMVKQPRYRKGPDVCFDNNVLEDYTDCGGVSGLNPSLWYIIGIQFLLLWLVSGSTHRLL
Chain of human Cav2.2 (P54284 whole entry partner): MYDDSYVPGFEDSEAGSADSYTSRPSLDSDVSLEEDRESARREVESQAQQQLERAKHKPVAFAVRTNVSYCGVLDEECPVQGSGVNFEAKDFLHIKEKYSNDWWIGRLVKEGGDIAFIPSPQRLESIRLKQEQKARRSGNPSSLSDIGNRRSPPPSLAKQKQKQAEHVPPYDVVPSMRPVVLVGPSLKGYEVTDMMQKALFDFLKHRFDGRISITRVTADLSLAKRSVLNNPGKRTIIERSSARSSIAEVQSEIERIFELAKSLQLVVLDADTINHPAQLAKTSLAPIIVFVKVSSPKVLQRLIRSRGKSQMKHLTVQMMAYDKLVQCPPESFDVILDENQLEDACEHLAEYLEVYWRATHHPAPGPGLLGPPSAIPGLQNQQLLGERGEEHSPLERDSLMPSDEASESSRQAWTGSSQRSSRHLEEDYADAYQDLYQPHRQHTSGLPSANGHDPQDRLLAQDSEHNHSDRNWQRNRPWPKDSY
In the case of `CN[C@@H](CC(C)C)C(=O)N[C@@H]1CC[C@H]2CN(S(=O)(=O)c3ccc(Cl)cc3)C[C@H]21` [Example 447, N^1-{(3aS,4R,6aR)-2-[(4-chlorophenyl)sulfonyl]octahydrocyclopenta[c]pyrrol-4-yl}-N^2-methyl-L-leucinamide], the IC50 was found to be 2.71 µM.

Turning to `CN[C@@H](CC(C)C)C(=O)N[C@@H]1CC[C@H]2CN(Cc3ccc(C(F)(F)F)cc3)C[C@H]21` [Example 449, N^2-methyl-N^1-{(3aS,4R,6aR)-2-[4-(trifluoromethyl)benzyl]octahydrocyclopenta[c]pyrrol-4-yl}-L-leucinamide], the IC50 was 4.06 µM. The result for `CN[C@H](C(=O)N[C@H]1CC[C@@H]2CN(S(=O)(=O)c3ccc(C(F)(F)F)cc3)C[C@@H]21)C(C)C` [Example 451, N^2-methyl-N^1-((3aR,4S,6aS)-2-{[4-(trifluoromethyl)phenyl]sulfonyl}octahydrocyclopenta[c]pyrrol-4-yl)-L-valinamide] reads 0.8 µM; that for `CN[C@H](C(=O)N[C@H]1CC[C@@H]2CN(S(=O)(=O)c3ccc(F)cc3)C[C@@H]21)C(C)C` [Example 452, N^1-{(3aR,4S,6aS)-2-[(4-fluorophenyl)sulfonyl]octahydrocyclopenta[c]pyrrol-4-yl}-N^2-methyl-L-valinamide], 9.12 µM.

As to `CC(C)(C)C[C@H](N)C(=O)N[C@H]1CC[C@@H]2CN(S(=O)(=O)c3ccc(F)cc3)C[C@@H]21` [Example 453, N^1-{(3aR,4S,6aS)-2-[(4-fluorophenyl)sulfonyl]octahydrocyclopenta[c]pyrrol-4-yl}-4-methyl-L-leucinamide], the IC50 stood at 4.23 µM. Under `CCCC[C@H](NC)C(=O)N[C@H]1CC[C@@H]2CN(S(=O)(=O)c3ccc(F)cc3)C[C@@H]21` [Example 454, N^1-{(3aR,4S,6aS)-2-[(4-fluorophenyl)sulfonyl]octahydrocyclopenta[c]pyrrol-4-yl}-N^2-methyl-L-norleucinamide] stands 2.03 µM. The result for `CN[C@@H](CC(C)C)C(=O)N[C@H]1CC[C@@H]2CN(S(=O)(=O)c3ccc(F)cc3)C[C@@H]21` [Example 455, N^1-{(3aR,4S,6aS)-2-[(4-fluorophenyl)sulfonyl]octahydrocyclopenta[c]pyrrol-4-yl}-N^2-methyl-L-leucinamide] reads 3.03 µM.

On to `CCC[C@H](NC)C(=O)N[C@H]1CC[C@H]2CN(S(=O)(=O)c3ccc(C(F)(F)F)cc3)C[C@H]21` [Example 456, N^2-methyl-N^1-((3aS,4S,6aR)-2-{[4-(trifluoromethyl)phenyl]sulfonyl}octahydrocyclopenta[c]pyrrol-4-yl)-L-norvalinamide], for which the IC50 amounted to 5.33 µM. The result for `CN[C@@H](CC(C)C)C(=O)N[C@H]1CC[C@H]2CN(S(=O)(=O)c3ccc(C(F)(F)F)cc3)C[C@H]21` [Example 457, N^2-methyl-N^1-((3aS,4S,6aR)-2-{[4-(trifluoromethyl)phenyl]sulfonyl}octahydrocyclopenta[c]pyrrol-4-yl)-L-leucinamide] reads 3.07 µM; that for `CCC[C@H](NC)C(=O)N[C@H]1CC[C@@H]2CN(CCC(c3ccc(F)cc3)c3ccc(F)cc3)C[C@@H]21` [Example 458, N^1-{(3aR,4S,6aS)-2-[3,3-bis(4-fluorophenyl)propyl]octahydrocyclopenta[c]pyrrol-4-yl}-N^2-methyl-L-norvalinamide], 3.08 µM; that for `CN[C@@H](CC(C)C)C(=O)N1C[C@H]2CC[C@H](NC(=O)C(c3ccc(F)cc3)c3ccc(F)cc3)[C@H]2C1` [Example 459, 2,2-bis(4-fluorophenyl)-N-[(3aR,4S,6aS)-2-(N-methyl-L-leucyl)octahydrocyclopenta[c]pyrrol-4-yl]acetamide], 1.62 µM. The result for `CCC[C@H](NC)C(=O)N1C[C@H]2CC[C@H](NC(=O)C(c3ccc(F)cc3)c3ccc(F)cc3)[C@H]2C1` [Example 460, 2,2-bis(4-fluorophenyl)-N-[(3aR,4S,6aS)-2-(N-methyl-L-norvalyl)octahydrocyclopenta[c]pyrrol-4-yl]acetamide] reads 2.69 µM; that for `CN[C@@H](CC(C)(C)C)C(=O)N1C[C@H]2CC[C@H](NC(=O)C(c3ccc(F)cc3)c3ccc(F)cc3)[C@H]2C1` [Example 461, N-[(3aR,4S,6aS)-2-(N,4-dimethyl-L-leucyl)octahydrocyclopenta[e]pyrrol-4-yl]-2,2-bis(4-fluorophenyl)acetamide], 1.88 µM; that for `FC(F)(F)c1cccc(CN2C[C@H]3CC[C@H](NC(c4ccccc4)c4ccccc4)[C@H]3C2)c1` [Example 466, (3aR,4S,6aS)—N-benzhydryl-2-[3-(trifluoromethyl)benzyl]octahydrocyclopenta[c]pyrrol-4-amine], 2.33 µM. For `CN[C@@H](CC(C)C)C(=O)N[C@@H]1CC[C@H]2CN(C(c3ccccc3)c3ccccc3)C[C@H]21` [Example 469, N^1-[(3aS,4R,6aR)-2-benzhydryloctahydrocyclopenta[c]pyrrol-4-yl]-N^2-methyl-L-leucinamide], the IC50 was 2.24 µM. Under `CCCN[C@@H](CC(C)(C)C)C(=O)N[C@H]1CC[C@@H]2CN(S(=O)(=O)c3ccc(C(F)(F)F)cc3)C[C@@H]21` [Example 470, 4-methyl-N^2-propyl-N^1-((3aR,4S,6aS)-2-{[4-(trifluoromethyl)phenyl]sulfonyl}octahydrocyclopenta[c]pyrrol-4-yl)-L-leucinamide] stands 1.03 µM; under `CC(C)(C)C[C@H](NCC1CC1)C(=O)N[C@H]1CC[C@@H]2CN(S(=O)(=O)c3ccc(C(F)(F)F)cc3)C[C@@H]21` [Example 471, N^2-(cyclopropylmethyl)-4-methyl-N^1-((3aR,4S,6aS)-2-{[4-(trifluoromethyl)phenyl]sulfonyl}octahydrocyclopenta[c]pyrrol-4-yl)-L-leucinamide], 0.65 µM; under `CC(C)(C)C[C@H](NCC1CCC1)C(=O)N[C@H]1CC[C@@H]2CN(S(=O)(=O)c3ccc(C(F)(F)F)cc3)C[C@@H]21` [Example 472, N^2-(cyclobutylmethyl)-4-methyl-N^1-((3aR,4S,6aS)-2-{[4-(trifluoromethyl)phenyl]sulfonyl}octahydrocyclopenta[c]pyrrol-4-yl)-L-leucinamide], 1.27 µM. Under `CC(C)CN[C@@H](CC(C)(C)C)C(=O)N[C@H]1CC[C@@H]2CN(S(=O)(=O)c3ccc(C(F)(F)F)cc3)C[C@@H]21` [Example 473, N^2-isobutyl-4-methyl-N^1-((3aR,4S,6aS)-2-{[4-(trifluoromethyl)phenyl]sulfonyl}octahydrocyclopenta[c]pyrrol-4-yl)-L-leucinamide] stands 2.66 µM. The result for `CC(C)(C)C[C@H](NCC1CCCC1)C(=O)N[C@H]1CC[C@@H]2CN(S(=O)(=O)c3ccc(C(F)(F)F)cc3)C[C@@H]21` [Example 474, N^2-(cyclopentylmethyl)-4-methyl-N^1-((3aR,4S,6aS)-2-{[4-(trifluoromethyl)phenyl]sulfonyl}octahydrocyclopenta[c]pyrrol-4-yl)-L-leucinamide] reads 1.74 µM; that for `CC(C)(C)C[C@H](NCC1CCCCC1)C(=O)N[C@H]1CC[C@@H]2CN(S(=O)(=O)c3ccc(C(F)(F)F)cc3)C[C@@H]21` [Example 475, N^2-(cyclohexylmethyl)-4-methyl-N^1-((3aR,4S,6aS)-2-{[4-(trifluoromethyl)phenyl]sulfonyl}octahydrocyclopenta[c]pyrrol-4-yl)-L-leucinamide], 1.84 µM; that for `CCCCN[C@@H](CC(C)(C)C)C(=O)N[C@H]1CC[C@@H]2CN(S(=O)(=O)c3ccc(C(F)(F)F)cc3)C[C@@H]21` [Example 476, N^2-butyl-4-methyl-N^1-((3aR,4S,6aS)-2-{[4-(trifluoromethyl)phenyl]sulfonyl}octahydrocyclopenta[c]pyrrol-4-yl)-L-leucinamide], 1.31 µM. As to `CCN[C@@H](CC(C)(C)C)C(=O)N[C@H]1CC[C@@H]2CN(S(=O)(=O)c3ccc(C(F)(F)F)cc3)C[C@@H]21` [Example 477, N^2-ethyl-4-methyl-N^1-((3aR,4S,6aS)-2-{[4-(trifluoromethyl)phenyl]sulfonyl}octahydrocyclopenta[c]pyrrol-4-yl)-L-leucinamide], the IC50 amounted to 1.88 µM. In the case of `CCC[C@H](NC(C)C)C(=O)N[C@H]1CC[C@@H]2CN(S(=O)(=O)c3ccc(C(F)(F)F)cc3)C[C@@H]21` [Example 481, N^2-isopropyl-N^1-((3aR,4S,6aS)-2-{[4-(trifluoromethyl)phenyl]sulfonyl}octahydrocyclopenta[c]pyrrol-4-yl)-L-norvalinamide], the IC50 worked out at 2.28 µM. Regarding `CCC[C@H](NC(C)C)C(=O)N[C@@H]1CC[C@H]2CN(S(=O)(=O)c3ccc(C(F)(F)F)cc3)C[C@H]21` [Example 482, N^2-isopropyl-N^1-((3aS,4R,6aR)-2-{[4-(trifluoromethyl)phenyl]sulfonyl}octahydrocyclopenta[c]pyrrol-4-yl)-L-norvalinamide], the IC50 was determined as 1.97 µM. Under `CCC[C@H](NC(C)C)C(=O)N[C@H]1CC[C@@H]2CN(S(=O)(=O)c3cccc(C(F)(F)F)c3)C[C@@H]21` [Example 483, N^2-isopropyl-N^1-((3aR,4S,6aS)-2-{[3-(trifluoromethyl)phenyl]sulfonyl}octahydrocyclopenta[c]pyrrol-4-yl)-L-norvalinamide] stands 0.49 µM; under `CCC[C@H](NC(C)C)C(=O)N[C@@H]1CC[C@H]2CN(S(=O)(=O)c3cccc(C(F)(F)F)c3)C[C@H]21` [Example 484, N^2-isopropyl-N^1-((3aS,4R,6aR)-2-{[3-(trifluoromethyl)phenyl]sulfonyl}octahydrocyclopenta[c]pyrrol-4-yl)-L-norvalinamide], 0.97 µM; under `CC(C)N[C@@H](CC(C)(C)C)C(=O)N[C@H]1CC[C@@H]2CN(S(=O)(=O)c3cc(C(F)(F)F)ccc3Cl)C[C@@H]21` [Example 486, N^1-((3aR,4S,6aS)-2-{[2-chloro-5-(trifluoromethyl)phenyl]sulfonyl}octahydrocyclopenta[c]pyrrol-4-yl)-N^2-isopropyl-4-methyl-L-leucinamide], 1.21 µM.

These data come from patent publication US8129417B2, “Substituted octahydrocyclopenta[C]pyrrol-4-amines as calcium channel blockers” (Abbott Laboratories, priority 2008, dated 2012).
